From PMC5433425 (PeerJ, 2017)

Legend:
[1] = system: E. coli K-12 AG100 (wild-type); experiment: MIC, broth microdilution; format: cell-based; conditions: Escherichia coli
[2] = system: E. coli AG100A (AcrAB pump-deficient); experiment: MIC, broth microdilution; format: cell-based, Escherichia coli; conditions: Escherichia coli
[3] = system: E. coli AG100tet (AcrAB overexpressing); experiment: MIC, broth microdilution; format: cell-based, Escherichia coli; conditions: Escherichia coli
E. coli AG100 [4] = experiment: Checkerboard synergy assay (MIC of antibiotics/EtBr with efflux inhibitor); format: cell-based, Escherichia coli; conditions: Escherichia coli, AG100, read-out: MIC without efflux inhibitor
Procedure: (§1) The assays were performed in triplicate and the MIC value was given as result of at least two concordant values.

E. coli AG100A [5] = experiment: microbe, parasite or virus in culture; format: cell-based, Escherichia coli; conditions: Escherichia coli, AG100A, read-out: MIC without efflux inhibitor
Procedure: The minimum inhibitory concentrations (MICs) were determined using the broth microdilution method according to the CLSI guidelines ([Clinical and Laboratory Standards Institute, 2014]). […] Two-fold serial dilutions of the compounds were made to achieve the following concentrations: 320 µM–40 µM. The MICs were determined as the lowest concentration at which no visible growth was observed after 18 h of incubation at 37 °C. The assays were performed in triplicate and the MIC value was given as result of at least two concordant values.

E. coli AG100tet [6] = experiment: microbe, parasite or virus in culture; format: cell-based, Escherichia coli; conditions: Escherichia coli, AG100TET, read-out: MIC without efflux inhibitor, AG100tet; inhibitor 0 μM
Procedure: as §1

E. coli AG100A [7] = conditions: AG100A
E. coli AG100 [8] = experiment: EtBr accumulation by real-time fluorometry
E. coli AG100tet [9] = experiment: EtBr accumulation by real-time fluorometry; conditions: AG100tet

CC[n+]1c(-c2ccccc2)c2cc(N)ccc2c2ccc(N)cc21 [EtBr, ethidium bromide]
MIC [1]: 200 µg/mL | MIC [2]: 3.12 µg/mL | MIC [3]: 512 µg/mL | MIC (E. coli AG100 [4]): 200 µg/mL | MIC (E. coli AG100A [5]): 3.12 µg/mL | MIC (E. coli AG100tet [6]): 512 µg/mL | equilibrium concentration (influx equals efflux) (E. coli AG100A [7]): 0.25 µg/mL | equilibrium concentration (influx equals efflux) (E. coli AG100 [8]; AG100): 1 µg/mL | EtBr fluorescence (E. coli AG100 [8]; EtBr 0.5 µg/ml, cycle 1): 3.237 | EtBr fluorescence (E. coli AG100 [8]; EtBr 0.5 µg/ml, cycle 7): 3.883 | EtBr fluorescence (E. coli AG100 [8]; EtBr 0.5 µg/ml, cycle 8): 4.039 | EtBr fluorescence (E. coli AG100 [8]; EtBr 0.5 µg/ml, cycle 9): 4.222 | EtBr fluorescence (E. coli AG100 [8]; EtBr 0.5 µg/ml, cycle 10): 4.226 | EtBr fluorescence (E. coli AG100 [8]; EtBr 0.5 µg/ml, cycle 11): 4.3568 | EtBr fluorescence (E. coli AG100 [8]; EtBr 0.5 µg/ml, cycle 12): 4.419 | EtBr fluorescence (E. coli AG100 [8]; EtBr 0.5 µg/ml, cycle 13): 4.6831 | EtBr fluorescence (E. coli AG100 [8]; EtBr 0.5 µg/ml, cycle 14): 4.514 | EtBr fluorescence (E. coli AG100 [8]; EtBr 0.5 µg/ml, cycle 15): 4.795 | EtBr fluorescence (E. coli AG100 [8]; EtBr 0.5 µg/ml, cycle 16): 4.926 | EtBr fluorescence (E. coli AG100 [8]; EtBr 0.5 µg/ml, cycle 17): 4.878 | EtBr fluorescence (E. coli AG100 [8]; EtBr 0.5 µg/ml, cycle 18): 4.912 | EtBr fluorescence (E. coli AG100 [8]; EtBr 0.5 µg/ml, cycle 19): 5.122 | EtBr fluorescence (E. coli AG100 [8]; EtBr 0.5 µg/ml, cycle 20): 5.073 | EtBr fluorescence (E. coli AG100 [8]; EtBr 0.5 µg/ml, cycle 21): 5.194 | EtBr fluorescence (E. coli AG100 [8]; EtBr 0.5 µg/ml, cycle 22): 5.233 | EtBr fluorescence (E. coli AG100 [8]; EtBr 0.5 µg/ml, cycle 23): 5.309 | EtBr fluorescence (E. coli AG100 [8]; EtBr 0.5 µg/ml, cycle 24): 5.461 | EtBr fluorescence (E. coli AG100 [8]; EtBr 0.5 µg/ml, cycle 25): 5.593 | EtBr fluorescence (E. coli AG100 [8]; EtBr 0.5 µg/ml, cycle 26): 5.584 | EtBr fluorescence (E. coli AG100 [8]; EtBr 0.5 µg/ml, cycle 27): 5.69 | EtBr fluorescence (E. coli AG100 [8]; EtBr 0.5 µg/ml, cycle 28): 5.64 | EtBr fluorescence (E. coli AG100 [8]; EtBr 0.5 µg/ml, cycle 29): 5.6965 | EtBr fluorescence (E. coli AG100 [8]; EtBr 0.5 µg/ml, cycle 30): 5.739 | EtBr fluorescence (E. coli AG100 [8]; EtBr 1 µg/ml, cycle 1): 4.697 | EtBr fluorescence (E. coli AG100 [8]; EtBr 1 µg/ml, cycle 2): 4.852 | EtBr fluorescence (E. coli AG100 [8]; EtBr 1 µg/ml, cycle 3): 5.005 | EtBr fluorescence (E. coli AG100 [8]; EtBr 1 µg/ml, cycle 4): 5.143 | EtBr fluorescence (E. coli AG100 [8]; EtBr 1 µg/ml, cycle 5): 5.505 | EtBr fluorescence (E. coli AG100 [8]; EtBr 1 µg/ml, cycle 6): 5.767 | EtBr fluorescence (E. coli AG100 [8]; EtBr 1 µg/ml, cycle 7): 5.841 | EtBr fluorescence (E. coli AG100 [8]; EtBr 1 µg/ml, cycle 8): 6.0562 | EtBr fluorescence (E. coli AG100 [8]; EtBr 1 µg/ml, cycle 9): 6.088 | EtBr fluorescence (E. coli AG100 [8]; EtBr 1 µg/ml, cycle 10): 6.339 | EtBr fluorescence (E. coli AG100 [8]; EtBr 1 µg/ml, cycle 11): 6.446 | EtBr fluorescence (E. coli AG100 [8]; EtBr 1 µg/ml, cycle 12): 6.666 | EtBr fluorescence (E. coli AG100 [8]; EtBr 1 µg/ml, cycle 13): 6.748 | EtBr fluorescence (E. coli AG100 [8]; EtBr 1 µg/ml, cycle 14): 6.978 | EtBr fluorescence (E. coli AG100 [8]; EtBr 1 µg/ml, cycle 15): 7.028 | EtBr fluorescence (E. coli AG100 [8]; EtBr 1 µg/ml, cycle 16): 7.227 | EtBr fluorescence (E. coli AG100 [8]; EtBr 1 µg/ml, cycle 17): 7.381 | EtBr fluorescence (E. coli AG100 [8]; EtBr 1 µg/ml, cycle 18): 7.326 | EtBr fluorescence (E. coli AG100 [8]; EtBr 1 µg/ml, cycle 19): 7.434 | EtBr fluorescence (E. coli AG100 [8]; EtBr 1 µg/ml, cycle 20): 7.666 | EtBr fluorescence (E. coli AG100 [8]; EtBr 1 µg/ml, cycle 21): 7.737 | EtBr fluorescence (E. coli AG100 [8]; EtBr 1 µg/ml, cycle 22): 7.695 | EtBr fluorescence (E. coli AG100 [8]; EtBr 1 µg/ml, cycle 23): 7.798 | EtBr fluorescence (E. coli AG100 [8]; EtBr 1 µg/ml, cycle 24): 7.86 | EtBr fluorescence (E. coli AG100 [8]; EtBr 1 µg/ml, cycle 25): 7.955 | EtBr fluorescence (E. coli AG100 [8]; EtBr 1 µg/ml, cycle 26): 7.794 | EtBr fluorescence (E. coli AG100 [8]; EtBr 1 µg/ml, cycle 27): 7.948 | EtBr fluorescence (E. coli AG100 [8]; EtBr 1 µg/ml, cycle 28): 8.04 | EtBr fluorescence (E. coli AG100 [8]; EtBr 1 µg/ml, cycle 29): 8.111 | EtBr fluorescence (E. coli AG100 [8]; EtBr 1 µg/ml, cycle 30): 8.205 | EtBr fluorescence (E. coli AG100 [8]; EtBr 2 µg/ml, cycle 1): 9.029 | EtBr fluorescence (E. coli AG100 [8]; EtBr 2 µg/ml, cycle 2): 9.296 | EtBr fluorescence (E. coli AG100 [8]; EtBr 2 µg/ml, cycle 3): 9.71 | EtBr fluorescence (E. coli AG100 [8]; EtBr 2 µg/ml, cycle 4): 9.991 | EtBr fluorescence (E. coli AG100 [8]; EtBr 2 µg/ml, cycle 5): 10.2954 | EtBr fluorescence (E. coli AG100 [8]; EtBr 2 µg/ml, cycle 12): 12.653 | EtBr fluorescence (E. coli AG100 [8]; EtBr 2 µg/ml, cycle 13): 13.0282 | EtBr fluorescence (E. coli AG100 [8]; EtBr 2 µg/ml, cycle 14): 13.3381 | EtBr fluorescence (E. coli AG100 [8]; EtBr 2 µg/ml, cycle 15): 13.5191 | EtBr fluorescence (E. coli AG100 [8]; EtBr 2 µg/ml, cycle 16): 13.6733 | EtBr fluorescence (E. coli AG100 [8]; EtBr 2 µg/ml, cycle 17): 14.0513 | EtBr fluorescence (E. coli AG100 [8]; EtBr 2 µg/ml, cycle 18): 14.1241 | EtBr fluorescence (E. coli AG100 [8]; EtBr 2 µg/ml, cycle 19): 14.4449 | EtBr fluorescence (E. coli AG100 [8]; EtBr 2 µg/ml, cycle 20): 14.643 | EtBr fluorescence (E. coli AG100 [8]; EtBr 2 µg/ml, cycle 21): 14.9287 | EtBr fluorescence (E. coli AG100 [8]; EtBr 2 µg/ml, cycle 22): 15.1966 | EtBr fluorescence (E. coli AG100 [8]; EtBr 2 µg/ml, cycle 23): 15.196 | EtBr fluorescence (E. coli AG100 [8]; EtBr 2 µg/ml, cycle 24): 15.3241 | EtBr fluorescence (E. coli AG100 [8]; EtBr 2 µg/ml, cycle 25): 15.6489 | EtBr fluorescence (E. coli AG100 [8]; EtBr 2 µg/ml, cycle 26): 15.801 | EtBr fluorescence (E. coli AG100 [8]; EtBr 2 µg/ml, cycle 27): 15.8722 | EtBr fluorescence (E. coli AG100 [8]; EtBr 2 µg/ml, cycle 28): 16.0341 | EtBr fluorescence (E. coli AG100 [8]; EtBr 2 µg/ml, cycle 29): 16.3924 | EtBr fluorescence (E. coli AG100 [8]; EtBr 2 µg/ml, cycle 30): 16.548 | equilibrium concentration (influx equals efflux) (E. coli AG100tet [9]): 2 µg/mL
